From US9156796B2, “Benzoimidazole-carboxylic acid amide derivatives as APJ receptor modulators” (SANOFI, priority 2013, dated 2015)
pEC50: −log10 of the molar value.

What follows are molecules tested against T1, human apelin receptor (Homo sapiens, UniProt P35414) (assay: Determination of agonism on the human apelin receptor by a calcium fluorescence assay (FLIPR)). Conditions: HEK293 cells stably transfected with human apelin receptor and Giaq protein, Fluo-4 calcium fluorescence, read-out: EC50 (APJ agonism).
T1 construct: expressed in transfected cells
T1 sequence (P35414 1-380): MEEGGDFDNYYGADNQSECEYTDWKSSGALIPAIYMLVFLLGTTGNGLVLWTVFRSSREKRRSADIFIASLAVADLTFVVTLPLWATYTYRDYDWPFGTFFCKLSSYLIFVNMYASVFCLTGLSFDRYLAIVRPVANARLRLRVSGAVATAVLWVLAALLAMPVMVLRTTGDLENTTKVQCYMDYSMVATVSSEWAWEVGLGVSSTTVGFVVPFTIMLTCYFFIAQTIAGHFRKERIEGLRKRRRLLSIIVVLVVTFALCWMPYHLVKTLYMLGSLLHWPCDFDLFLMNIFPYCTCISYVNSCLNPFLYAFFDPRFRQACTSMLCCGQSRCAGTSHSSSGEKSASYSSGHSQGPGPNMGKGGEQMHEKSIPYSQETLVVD
Assay type: cell-based
Description: Determination of Agonism on the Human Apelin Receptor by a Calcium Fluorescence Assay (FLIPR)
The assay is based on the detection of intracellular calcium changes detected by the selective, calcium-chelating dye Fluo-4 (Molecular Probes). A large fluorescence intensity increase is observed upon calcium association with Fluo-4. The dye is delivered to the cell interior using an acetoxymethylester form of Fluo-4, where the intracellular esterase activity results in the charged species being released and trapped within the cytoplasm of the cell. […] By co-expressing the human apelin receptor and a promiscuous Giaq protein, agonism of the apelin receptor couples to phospholipase-C resulting in intracellular calcium mobilization.
The HEK293 cells were stably transfected with the human apelin receptor and the Giaq protein. Cells were selected and maintained in a log phase of growth at 37° and 5% CO2 in the Iscove's minimal essential medium, 10% fetal calf serum, 1× Penicillin-Streptomycin, 400 μg/mL G418. One day prior the assay, cells were passaged by accutase and plated at a density of 50,000 cells/well onto a 96-well plates with black border but clear bottom (Costar, cat#3904) in a final volume of 200 μl growth medium.
In order to load the cells the next day with the calcium-sensitive dye, growth medium was carefully replaced by dye solution (100 μl/well) containing Fluo-4 (4 μM) in basic measurement buffer (135 mM NaCl, 5 mM KCl, 1 mM magnesium sulphate, 5 mM glucose, 20 mM Hepes, 2.5 mM probenecid; adjusted to pH 7.4). Cells were incubated for 1 h at 37° C., and then washed 3× with buffer containing no dye. The washer was programmed to leave a remaining volume of 150 μl after the third wash in the plate.
During the dye-loading of the cells, a serial compound dilution was performed in a separate 96-well plate with overall 4× increased concentrations. Small aliquots of DMSO stock solutions of the compounds (10 mM in 100% DMSO were aliquoted into 150 μl buffer in the first rows of the 96-well plates, and then serially diluted by a factor of 1:3 transferring each time 30 μl to the next rows already containing 60 μl buffer. All compounds were tested in a least 7 concentrations, each condition was performed in triplicates. As comparator, we used freshly prepared apelin-13 solutions, for which also a concentration-response curve was determined at each measurement day. The compound plate was incubated for 10 min after the final dilutions steps at 37° C. before transferring the dye-loaded cell plate and the compound plate into a FLIPR Tetra reader (Molecular Devices). Measurement within this reader started by pipetting the agonist solution (50 μl) on the cell plate. Overall perform 60 reads were performed with an interval of 2 sec. The maximum of the fluorescence transient was used to calculate the agonistic response of the cells. In order to normalize this response, which may vary from plate to plate we set the maximum fluorescence achieved by 1 μM apelin-13 on this plate as 100%.
EC-50 values for apelin-13 and the apelin receptor compounds described in this patent were determined by standard algorithms using a specific software package.

Compared with `C[C@@H]1CCCC[C@H]1n1c(Cc2cccs2)nc2cc(C(=O)NC(CC(=O)O)CC3CCCCC3)ccc21` (single isomer, unassigned) [Example 456], `CC1CCCCC1n1c(Cc2cccs2)nc2cc(C(=O)N[C@@H](CC3CCCCC3)C(=O)O)ccc21` (stereo partly drawn) [Example 15, (S)-3-Cyclohexyl-2-{[1-(2-methyl-cyclohexyl)-2-thiophen-2-ylmethyl-1H-benzoimidazole-5-carbonyl]-amino}-propionic acid] is 0.22 log units lower in pEC50: 6.82 for the first, 6.60 for the second. The first is the more potent here.

Compared with `C[C@@H]1CCCC[C@H]1n1c(Cc2cccs2)nc2cc(C(=O)NC(CC(=O)O)CC3CCCCC3)ccc21` (single isomer, unassigned) [Example 457], `C[C@@H]1CCCC[C@H]1n1c(Cc2cccs2)nc2cc(C(=O)NC(CC(=O)O)C3CCCCC3)ccc21` (single isomer, unassigned) [Example 462] is 1.02 log units higher in pEC50: 5.84 for the first, 6.86 for the second.

`CCCC(CC(=O)O)NC(=O)c1ccc2c(c1)nc(Cc1cccs1)n2[C@@H]1CCCC[C@H]1C` (single isomer, unassigned) [Example 458] and `CCCCC(CC(=O)O)NC(=O)c1ccc2c(c1)nc(Cc1cccs1)n2[C@@H]1CCCC[C@H]1C` (single isomer, unassigned) [Example 460] are the same in pEC50: 6.91 for the first, 6.91 for the second.

First: CCCCC(CC(=O)O)NC(=O)c1ccc2c(c1)nc(Cc1cccs1)n2[C@@H]1CCCC[C@H]1C (single isomer, unassigned) [Example 461]
Second: CCCC[C@H](NC(=O)c1ccc2c(c1)nc(Cc1cccs1)n2C1CCCCC1C)C(=O)O (stereo partly drawn) [Example 16, (S)-2-{[1-(2-Methyl-cyclohexyl)-2-thiophen-2-ylmethyl-1H-benzoimidazole-5-carbonyl]-amino}-hexanoic acid]
The pEC50 of the first is 1.47 log units lower: 5.46 for the first, 6.93 for the second.

Going from `C[C@@H]1CCCC[C@H]1n1c(Cc2cccs2)nc2cc(C(=O)NC(CC(=O)O)C3CCCCC3)ccc21` (single isomer, unassigned) [Example 463] to `CCC(CC)n1c(Cc2cccs2)nc2cc(C(=O)NC(CC3CCCC3)C(=O)O)ccc21` (stereo not shown) [Example 11, 3-Cyclopentyl-2-{[1-(1-ethyl-propyl)-2-thiophen-2-ylmethyl-1H-benzoimidazole-5-carbonyl]-amino}-propionic acid], the pEC50 rises from 5.61 to 7.19 (1.58 log units).

Going from `CCC(CC)n1c(Cc2cccs2)nc2cc(C(=O)NC(CC(C)C)C(C)(C)C(=O)O)ccc21` (single isomer, unassigned) [Example 464] to `CCCC(NC(=O)c1ccc2c(c1)nc(Cc1cccs1)n2C(CC)CC)C(C)(C)C(=O)O` (single isomer, unassigned) [Example 466], the pEC50 falls from 6.90 to 5.33 (1.57 log units).

Compared with `CCC(CC)n1c(Cc2cccs2)nc2cc(C(=O)NC(CC(C)C)C(C)(C)C(=O)O)ccc21` (single isomer, unassigned) [Example 465], `CCCC(NC(=O)c1ccc2c(c1)nc(Cc1cccs1)n2C(CC)CC)C(C)(C)C(=O)O` (single isomer, unassigned) [Example 467] is 0.56 log units higher in pEC50: 6.02 for the first, 6.58 for the second.

First: CCCCC(NC(=O)c1ccc2c(c1)nc(Cc1cccs1)n2C(CC)CC)C(C)(C)C(=O)O (single isomer, unassigned) [Example 468]
Second: CCC(CC)n1c(Cc2cccs2)nc2cc(C(=O)NC(C)(C(=O)O)C(C)C)ccc21 (stereo not shown) [Example 5, 2-{[1-(1-Ethyl-propyl)-2-thiophen-2-ylmethyl-1H-benzoimidazole-5-carbonyl]-amino}-2,3-dimethyl-butyric acid]
The pEC50 of the first is 1.13 log units higher: 6.14 for the first, 5.01 for the second.

Going from `CCCCC(NC(=O)c1ccc2c(c1)nc(Cc1cccs1)n2C(CC)CC)C(C)(C)C(=O)O` (single isomer, unassigned) [Example 469] to `CCC(CC)n1c(Cc2cccs2)nc2cc(C(=O)NC(C)(CC(C)C)C(=O)O)ccc21` (stereo not shown) [Example 12, 2-{[1-(1-Ethyl-propyl)-2-thiophen-2-ylmethyl-1H-benzoimidazole-5-carbonyl]-amino}-2,4-dimethyl-pentanoic acid], the pEC50 falls from 7.22 to 6.09 (1.13 log units).

Going from `CCCC(CCO)NC(=O)c1ccc2c(c1)nc(Cc1cccs1)n2C(CC)CC` (single isomer, unassigned) [Example 470] to `CCC(CC)n1c(Cc2cccs2)nc2cc(C(=O)NC3(C(=O)O)CCCC3)ccc21` [Example 6, 1-{[1-(1-Ethyl-propyl)-2-thiophen-2-ylmethyl-1H-benzoimidazole-5-carbonyl]-amino}-cyclopentanecarboxylic acid], the pEC50 falls from 6.63 to 5.42 (1.21 log units).

Going from `CCCC(CCO)NC(=O)c1ccc2c(c1)nc(Cc1cccs1)n2C(CC)CC` (single isomer, unassigned) [Example 471] to `CCC(CC)n1c(Cc2cccs2)nc2cc(C(=O)NC(CC)(C(=O)O)c3ccccc3)ccc21` (stereo not shown) [Example 7, 2-{[1-(1-Ethyl-propyl)-2-thiophen-2-ylmethyl-1H-benzoimidazole-5-carbonyl]-amino}-2-phenyl-butyric acid], the pEC50 falls from 5.30 to 4.35 (0.95 log units).

Compared with `CCC(CC)n1c(Cc2cccs2)nc2cc(C(=O)NC3(C(=O)O)CCCCCC3)ccc21` [Example 1, 1-{[1-(1-Ethyl-propyl)-2-thiophen-2-ylmethyl-1H-benzoimidazole-5-carbonyl]-amino}-cycloheptanecarboxylic acid], `CCC(CC)n1c(Cc2ccco2)nc2cc(C(=O)N[C@@H](CC3CCCCC3)C(=O)O)ccc21` [Example 8, (S)-3-Cyclohexyl-2-{[1-(1-ethyl-propyl)-2-furan-2-ylmethyl-1H-benzoimidazole-5-carbonyl]-amino}-propionic acid] is 0.53 log units higher in pEC50: 6.44 for the first, 6.97 for the second.

`CCC(CC)n1c(Cc2ccco2)nc2cc(C(=O)NC(C)(Cc3ccccc3)C(=O)O)ccc21` (stereo not shown) [Example 2, 2-{[1-(1-Ethyl-propyl)-2-furan-2-ylmethyl-1H-benzoimidazole-5-carbonyl]-amino}-2-methyl-3-phenyl-propionic acid] and `CCC(CC)n1c(Cc2cccs2)nc2cc(C(=O)NC(C)(Cc3ccccc3)C(=O)O)ccc21` (stereo not shown) [Example 4, 2-{[1-(1-Ethyl-propyl)-2-thiophen-2-ylmethyl-1H-benzoimidazole-5-carbonyl]-amino}-2-methyl-3-phenyl-propionic acid] are within 0.2 log units of each other in pEC50: 4.70 for the first, 4.78 for the second.

`CCC(CC)n1c(CC2CCCC2)nc2cc(C(=O)N[C@@H](CC3CCCCC3)C(=O)O)ccc21` [Example 3, (S)-3-Cyclohexyl-2-{[2-cyclopentylmethyl-1-(1-ethyl-propyl)-1H-benzoimidazole-5-carbonyl]-amino}-propionic acid] and `CCC(CC)n1c(CC2CCCC2)nc2cc(C(=O)N[C@H](CC3CCCCC3)C(=O)O)ccc21` [Example 10, (R)-3-Cyclohexyl-2-[{2-cyclopentylmethyl-1-(1-ethyl-propyl)-1H-benzoimidazole-5-carbonyl]-amino}-propionic acid] are within 0.2 log units of each other in pEC50: 5.92 for the first, 5.77 for the second.

`CCC(CC)n1c(Cc2ccco2)nc2cc(C(=O)N[C@H](CC3CCCCC3)C(=O)O)ccc21` [Example 9, (R)-3-Cyclohexyl-2-{[1-(1-ethyl-propyl)-2-furan-2-ylmethyl-1H-benzoimidazole-5-carbonyl]-amino}-propionic acid] and `CCC(CC)n1c(Cc2ccco2)nc2cc(C(=O)NC(C)(CC(C)C)C(=O)O)ccc21` (stereo not shown) [Example 13, 2-{[1-(1-Ethyl-propyl)-2-furan-2-ylmethyl-1H-benzoimidazole-5-carbonyl]-amino}-2,4-dimethyl-pentanoic acid] are within 0.2 log units of each other in pEC50: 6.23 for the first, 6.27 for the second.

Molecule `CCC(CC)n1c(Cc2ccco2)nc2cc(C(=O)NC(C)(CCSC)C(=O)O)ccc21` (stereo not shown) [Example 14, 2-{[1-(1-Ethyl-propyl)-2-furan-2-ylmethyl-1H-benzoimidazole-5-carbonyl]-amino}-2-methyl-4-methylsulfanyl-butyric acid] has a pEC50 of 5.87.
